Laboratory results reported in patent publication US20160122407A1, “Galectin-3 Inhibitor (Gal-3M) is Associated with Additive Anti-Myeloma and Anti-Solid Tumor Effects, Decreased Osteoclastogenesis and Organ Protection when Used in Combination with Proteasome Inhibitors” (Texas Tech University System, priority 2014, published 2016).

Experiments:
[1] = test system: 5TGM1 cells; experiment: Cell viability assay (ViaLight Plus); format: cell-based, murine; details: Carf 10 nM, Gal3M 10 ug/ml
Experimental: Cell viability assay. 5TGM1 cells were treated for 48 hours with carfilzomib, Gal3M or the combination of these two agents, then cell viability was assessed by the ViaLight Plus Cell Proliferation and Cytotoxicity BioAssay Kit (Lonza) according to the directions of the manufacturer.

[2] = test system: 5TGM1 cells; experiment: Chemotaxis assay (Transwell); format: cell-based, murine
Experimental: Chemotaxis assay. 5TGM1 cells (4×10^5/well) were plated in 100 μL serum-free medium in the top chambers of 24-well Transwell™ inserts (Corning Costar, N.Y., USA) with 8-μm. Complete cell culture medium (600 μL) containing 10% FBS was added to the bottom chamber. Cells were treated for 4 hours with Gal3M (10 μg/ml), carfilzomib (10 nM) or carfilzomib plus Gal3M (same doses), and 5TGM1 cells in the lower chamber were fixed and counted.

[3] = test system: 5TGM1 cells; experiment: Invasion ability of 5TGM1 cells; format: cell-based, murine; details: Carf 10 nM, Gal3M 10 ug/ml
[4] = test system: 5TGM1 cells; experiment: 5TGM1 syngeneic mice model of MM, serum IgG2b and SP17 ELISA; format: in vivo, C57BL/KaLwRij mice
Experimental: (§1) Testing Gal3M and carfilzomib in 5TGM1 syngeneic mice model. 5TGM1 cells were washed once with PBS (Sigma-Aldrich) and counted. The suspension containing […] 5TGM1 cells was injected I.V. into 20 C57BL/KaLwRij mice, 5 non-injected mice were used as negative controls. Tumor engraftment was assessed by testing IgG2b in the sera once a week. After 14 days the injected mice were randomly divided into four groups (five mice/group). Control group #1 was injected with PBS-only, group #2 received a dose of Gal3M (100 μg/mouse), group #3 received a dose of carfilzomib (112 μg/mouse) and group #4 received a dose of carfilzomib (112 μg/mouse) plus Gal3M (100 ug/mouse). Treatment effect on tumor growth was assessed by testing IgG2b and SP17 levels in the sera. Anesthetized animals were euthanized after 28 days and a postmortem examination was conducted on the whole animals and dissected organs.
ELISA for Sp17 and IgG2b. The levels of SP17 and IgG2b in mice serum were measured by direct ELISA as follows. Flat-bottom 96-well polycarbonate plates were coated with 100 μL/well sera diluted 1:25 in carbonate coating buffer (0.1 M Na2CO3, 0.1 M NaHCO3, pH 9.5) at 4° C. overnight. Then, after blocking with PBS supplemented with 1% W/V BSA for 1 hour at RT, plates were incubated with mouse anti-mouse Sp17 or IgG2b primary antibodies (1:500 in PBS, 100 μL/well, Santa Cruz Biotechnology) for 1 hour at RT. Then, plates were washed thrice with PBS with 0.025% V/V Tween-20 (200 μL/well) and incubated at RT with anti-mouse HRP-labeled secondary antibodies (1:10,000 in PBS; Abcam, Cambridge, Mass., USA) for 1 hour. The plates were washed thrice with PBS containing 0.025% V/V Tween-20 (200 μL/well), the TMB colorimetric substrate (Thermo Fisher Scientific, Waltham, Mass., USA) was added, and after 5 minutes the absorbance was measured (0.1 s) at 450 nm on a Victor 2 multimodal microplate reader (PerkinElmer, Billerica, Mass., USA). All samples were run in triplicates.

[5] = test system: kidney and heart; experiment: Kidney and heart toxicity in 5TGM1 mice (hematoxylin/eosin, activated caspase-3 IHC); details: mouse, in vivo
Experimental: 5TGM1 cells were washed once with PBS (Sigma-Aldrich) and counted. […] Tumor engraftment was assessed by testing IgG2b in the sera once a week. After 14 days the injected mice were randomly divided into four groups (five mice/group). […] Treatment effect on tumor growth was assessed by testing IgG2b and SP17 levels in the sera. Anesthetized animals were euthanized after 28 days and a postmortem examination was conducted on the whole animals and dissected organs.
Immunohistochemistry analysis of markers of osteoclasts (anti-Cathepsin K antibody, Abcam), osteoblasts (anti-osteocalcin antibody, Abcam) and apoptosis (anti-activated caspase-3 antibody, Cell Signaling Technologies) were carried out in paraffin-embedded sections. Hearts and kidneys from treated and control mice were fixed in formalin, dehydrated in ethanol, embedded in paraffin, and then cut in 3.5 μm-thick sections. For bone sections, following formalin-fixation, decalcification with 10% EDTA (pH=8), and de-hydration in ethanol, femurs were included in paraffin, then cut in 5 μm-thick sections. […] Sections were rinsed twice in PBS+0.05% Tween-20, then endogenous peroxidase was blocked with 1% H2O2 in PBS for 15′. After rinsing three times with PBS+0.05% Tween-20 for 2′, slides were incubated with the secondary antibody (1:1000, Goat anti-Rabbit-HRP, Abcam) for 1 hour at RT. […]

[6] = test system: Raw264.7 cells co-cultured with 5TGM1 cells; experiment: 5TGM1-driven osteoclastogenesis in vitro (TRAP staining); format: cell-based, murine; details: co-culture with 5TGM1, 5 μM carfilzomib, 10 μM Gal3M, 7 days, vs control co-culture
Experimental: Osteoclast differentiation from RAW264.7 cells. For co-culture experiments Raw264.7 and 5TGM1 cells were seeded on a 6-well plate at a density of 1×10^4 cells/well (about 8×103 Raw264.7 and 2×103 […]) and cultured in presence/absence of carfilzomib, Gal3M or carfilzomib plus Gal3M. After 5-7 days cells were fixed on the culture plates with citrate-acetone solution and stained for TRAP (Sigma-Aldrich). Osteoclasts were identified and enumerated under light microscopy by the presence of ≧3 nuclei by using an Olympus microscope.

[7] = test system: 5TGM1 mice; experiment: Bone mass density analysis on x-ray images of 5TGM1 mice; format: in vivo; details: compared with tumor-bearing untreated mice
Experimental: as §1
Bone mass density analysis. X-ray images were taken at the euthanasia day using IVIS Lumina Series III Pre-clinical In Vivo Imaging System (Perkin Elmer, USA) and bone mass density analysis (BMD) were performed as previously described (McManus M M, 2011).

[8] = test system: 5TGM1 mice; experiment: IHC for osteocalcin and Cathepsin K on decalcified bones; format: in vivo
Experimental: Immunohistochemistry. Immunohistochemistry analysis of markers of osteoclasts (anti-Cathepsin K antibody, Abcam), osteoblasts (anti-osteocalcin antibody, Abcam) and apoptosis (anti-activated caspase-3 antibody, Cell Signaling Technologies) were carried out in paraffin-embedded sections. Hearts and kidneys from treated and control mice were fixed in formalin, dehydrated in ethanol, embedded in paraffin, and then cut in 3.5 μm-thick sections. For bone sections, following formalin-fixation, decalcification with 10% EDTA (pH=8), and de-hydration in ethanol, femurs were included in paraffin, then cut in 5 μm-thick sections. After deparaffinization in xylene and re-hydration (100%-95%-70%-50% ethanol scale), slides were placed 10′ in distilled water, then incubated 20′ at 98° C. in Sodium Citrate Buffer (10 mM Sodium Citrate, 0.05% Tween 20, pH 6.0). After blocking with PBS+5% V/V FBS (2 hours at room temperature), the anti Cathepsin K, steocalcin and active Caspase3 antibodies were added (diluted 1:400 in PBS+1% BSA) and allowed to incubate overnight at 4° C. Sections were rinsed twice in PBS+0.05% Tween-20, then endogenous peroxidase was blocked with 1% H2O2 in PBS for 15′. After rinsing three times with PBS+0.05% Tween-20 for 2′, slides were incubated with the secondary antibody (1:1000, Goat anti-Rabbit-HRP, Abcam) for 1 hour at RT. […]

[9] = test system: LLC; experiment: Murine lung cancer (LLC) study, measurement of tumor size; format: in vivo; details: LLC mice, treatment from 14 days after injection, Carfilzomib 112 ug and 224 ug
Experimental: Measurement of tumor size. 14 days after injection of LLC, the mice were treated with XM and Carfilzomib (112 ug and 224 ug) for two (2) consecutive days three (3) times weekly.

[10] = test system: kidney, liver, lung, spleen, and heart; experiment: Western Blot of apoptotic marker caspase-3 in organs of LLC mice; format: in vivo, mouse; details: after 36 days
Description: FIG. 14 is a Western Blot of the apoptopic marker […]-3 of cells in solid tumors with no treatment, XM alone, Carfilzomib alone, and Carfilzomib plus XM. After 36 days, the mice were sacrificed and organs collected for the Western Blot.

[11] = test system: lung cancer (tumor); experiment: ELISA for AKAP-4 expression in tumor and lung tissue; format: in vivo, mice; details: tumor and lung tissue lysates
Description: The wells were coated with tumor and lung tissue lysates.

[12] = MM patients; cited from earlier work

Question: For `CC(C)C[C@H](NC(=O)[C@H](CCc1ccccc1)NC(=O)CN1CCOCC1)C(=O)N[C@@H](Cc1ccccc1)C(=O)N[C@@H](CC(C)C)C(=O)[C@@]1(C)CO1` [Carfilzomib], which “growth of 5TGM1 (in words)” value [1] is on record?
Answer: significantly inhibited

Question: What about the “chemotaxis of 5TGM1 (in words)” value ([2]; Carf 10 nM, Gal3M 10 ug/ml) of the same molecule?
Answer: significantly inhibited

Question: What about the inhibition at 0.01 µM ([2]; Mus musculus, 5TGM1 cells, 4 hours, Gal3M 10 μg/ml, carfilzomib 10 nM, read-out: inhibition of the ability of 5TGM1 cells to migrate in response to chemotactic stimuli) of the same molecule?
Answer: 40%

Question: And the “invasion ability of 5TGM1 (in words)” value [3]?
Answer: significantly inhibited

Question: And the “decrease in IgG2b levels” value ([4]; day 21, treated on day 14, compared to untreated MM bearing mice)?
Answer: 14%

Question: And the “decrease in SP17 serum levels” value ([4]; day 28, compared to untreated mice)?
Answer: 37%

Question: And the “decrease in IgG2b levels” value ([4]; day 28, treated on day 14, compared to untreated MM bearing mice)?
Answer: 36%

Question: And the “histological analysis of kidney and heart: morphology and activated caspase-3” value ([5]; C57BL/KaLwRij, 28 days)?
Answer: associated with changes in cellular architecture and caspase-3 activation

Question: What about the kidney toxicity [5] of the same molecule?
Answer: kidney toxicity both at minimum and maximum dose

Question: And the “decrease in formation of TRAP+/multinucleated Raw264.7 cells” value [6]?
Answer: 55%

Question: What about the “BMD increase ROI2” value ([7]; distal femur end) of the same molecule?
Answer: 19%

Question: What about the “BMD increase ROI1” value ([7]; proximal femur end) of the same molecule?
Answer: 28%

Question: What about the “BMD increase ROI3” value ([7]; tibia) of the same molecule?
Answer: 12%

Question: And the “Cathepsin K-positive cells (osteoclasts marker)” value [8]?
Answer: decrease

Question: And the “osteocalcin-positive cells (osteoblasts marker)” value [8]?
Answer: increase

Question: And the “tumor growth (tumor size)” value [9]?
Answer: inhibited tumor growth

Question: What about the “apoptosis (caspase-3 Western Blot) in mouse organs” value [10] of the same molecule?
Answer: increased apoptosis

Question: And the “effect on lung cancer (AKAP-4 ELISA)” value [11]?
Answer: have an effect on lung cancer (tumor)

Question: What about the “treated patients discontinuing therapy because of renal and cardiac side effects” value [12] of the same molecule?
Answer: approximately 15%
